The results in this text go back to patent US4734280A, “Treatment or prevention of PAF Acether-induced maladies” (priority 1984, dated 1988).

Experiment [1] has as its system rabbit plasma-rich platelets (PRP). Kind of experiment: Aggregation induced by other known aggregants (ADP, thrombine, calcium ionophore A 23187, collagen, adrenaline). Type of experiment: cell-based. As to conditions: calcium ionophore A 23187, collagen and adrenaline.
For the next experiment, the target named is T1, PAF-Acether receptor (Oryctolagus cuniculus, UniProt G1TEI7).
T1 construct: using a rabbit membrane platelet preparation; from tissue; host or cells: rabbit platelets (membrane preparation)
T1 sequence (G1TEI7 1-342): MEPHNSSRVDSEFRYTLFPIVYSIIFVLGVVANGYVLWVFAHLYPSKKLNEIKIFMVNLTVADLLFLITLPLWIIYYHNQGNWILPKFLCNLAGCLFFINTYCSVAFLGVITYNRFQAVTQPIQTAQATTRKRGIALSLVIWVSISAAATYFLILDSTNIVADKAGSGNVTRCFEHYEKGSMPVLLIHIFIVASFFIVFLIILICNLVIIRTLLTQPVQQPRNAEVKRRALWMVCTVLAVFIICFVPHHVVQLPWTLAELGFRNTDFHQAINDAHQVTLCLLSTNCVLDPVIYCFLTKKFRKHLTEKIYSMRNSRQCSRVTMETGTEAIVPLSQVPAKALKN
Kind of experiment: Competition with 3H-PAF Acether binding, rabbit membrane platelet preparation.

For the next experiment, the system named is human washed platelets. In words: Inhibition of PAF Acether-induced PA, human washed platelets. The format is cell-based. As to conditions: Platelet, average values of 5 assays. The source says:
The inhibition of PAF Acether-induced PA was also experimented using human washed platelets on Ginkgolides A, B, and C.
Best figure for IC50 was obtained with Ginkgolide B (GK B) (average values of 5 assays) with 2.5 10^-5 M.

Experiment [2] deals with guinea-pig mesenteric artery. Kind of experiment: Opto-electronic follow-up of PAF Acether-induced thrombus, guinea-pig mesenteric artery. The format is in vivo. The source says:
In this experimental study, 20 guinea-pigs were used. […] Briefly summarized, this method consists in the dissection over a distance of 2 to 3 mm of a branch of the mesenteric artery following gently extraction of a loop of small intestine. By transillumination, the image of this arterial segment is projected onto a set of 30 light-depending resistances (LDR) arranged in two columns of 15 elements each. An LDR element has the property to change its internal resistance as a function of a variation of light intensity. Each LDR is connected into its own Wheatstone bridge, and the changes in light intensity due to thrombus formation will be recorded as variations in electrical potentials and registered as such via a multiplexing device.
In the present investigation, several discriminating parameters are recorded: (a) the t1 interval or the lag period (this is the time interval between the beginning of the PAF Acether superfusion and the first signs of thrombus formation; (b) the td interval is the duration of the thrombotic phenomenon; (c) the O(t) curve indicates the number of LDR elements covered by the thrombus image; (d) the D(t) curve represents during each 30×1/9×10^-2 sec interval the greatest potential deviation on one of the LDR elements covered by the thrombus image; (e) the T(t) curve represents the summation of the potentials registered on the LDR elements during a time interval of 30×1/9×10^-2 sec the TTV(t) curve results from the integration of the T(t) values in function of time; (f) mD, mT, and mO correspond to the maximal values registered on, respectively, the D(t), T(t), and O(t) curves; (g) TTV is the maximal value of the TTV(t) curve, whereas TVM is the value of this curve up to the point where mT is reached.
In a first series of experiments (10 animals) the effect of local superfusion with PAF Acether (10^-4 M) is investigated.
In a second series of experiments (10 animals) the effects of Ginkgolide B and of kadsurenone have been compared preventively and curatively.

Experiment [3] concerns guinea-pig lung parenchymal strip. In words: PAF Acether-induced contraction of superfused lung parenchymal strip.
A further experiment has as its system human PRP. In words: Inhibition of PAF Acether-induced PA, human PRP in vitro. Type of experiment: cell-based. As to conditions: PAF Acether 100 nM, read-out: IC Doses (PAF Acether-induced PA, human PRP). As for the experimental part:
The Inhibition of PAF Acether-induced PA has been studied on rabbit plasma-rich platelets (PRP). Two doses of PAF Acether were used (2.5 nM and 5 nM). The tested compound was added to the medium 3 minutes before PAF Acether and aggregation was followed by monitoring changes in electrical impedance (Whole-Blood aggregometer-chrono-Log); kadsurenone was simultaneously tested as reference compound and the IC50 molar doses of Ginkgolides A, B, C and M and of kadsurenone on PAF Acether-induced rabbit PA (PRP) have been calculated.
The inhibition of PAF Acether-induced PA has been studied on human PRP. The same protocol was used as for rabbit hereinabove.

In experiment [4] the test system is guinea-pig isolated heart. In words: Isolated Langendorff heart, PAF Acether effect. Particulars: PAF Acether 100 pM. The source says: The deletereous effect of PAF Acether on Isolated Langendorff heart has been previously described by J. BENVENISTE, C. BOULLET, C. BRINK and C. LABAT, Brit. J. Pharmacol, The action of PAF Acether on guinea-pig isolated heart preparation, 80: 81-3 (1983).
PAF Acether (100 pM) induced a decline in contractile strength (-30%) and a decrease of coronary flow (-50%).
This effect was dose-dependent (disappearance of protective activity when dose ≤10^-7 M).

The next experiment has as its system New-Zealand rabbits. Kind of experiment: PAF Acether-induced shock in the rabbit. As to conditions: for Extravasation (O.D.): 2 mg/kg IV perfusion, 30 mn, optical density at 590 nm, average of 10 animals. Type of experiment: in vivo. As for the experimental part: Treatment: Tested compounds (Gingkolides A, B and C) or vehicle were perfused in the ear vein in 45 ml NaCl 0.9% for 1 hour before PAF Acether injection. Vehicle consisted of 1.5 ml of propylene glycol completed to 45 ml by isotonic NaCl buffer; Ginkgolides were administered at the dose of 2 mg/kg IV; the figures reported in the following table are the average values of the 10 animals of each batch.

Setting [5] is: 2 mg/kg IV, PAF Acether 2 and 4 nmol/kg, 10 animals per batch.

From the text for PAF-Acether receptor: The competition of the alternative binding of either ^3 H-PAF Acether or one of the Ginkgolides was evidenced by radioactive determinations using a rabbit membrane platelet preparation. (100% control=^3 H-PAF Acether alone).

As to `CC1C(=O)OC2C(O)C34C5CC(C(C)(C)C)C36C(OC(=O)C6O)OC4(C(=O)O5)C12O` (stereo not drawn) [Ginkgolide B], in experiment [1], the “effect against aggregation induced by other known aggregants” value is reported as “totally ineffective”. Moreover, the IC50 on PAF-Acether receptor (rabbit membrane platelet preparation) turned out to be 0.575 µM; in the experiment with human washed platelets, 25 µM; in the experiment on human PRP, 56 µM. Moreover, on PAF-Acether receptor (read-out: reduction of 3H-PAF Acether binding), the inhibition at 1 µM was determined as 94%. In experiment [2] (PAF Acether superfusion), the “thrombus formation when superfused with PAF Acether (preventive)” value is “no thrombus appeared”. In addition, in experiment [2] (PAF Acether-induced thrombus), the “time for disappearance of pre-formed thrombus (curative)” value was 2.30 min. In addition, the inhibition at 30 µg/mL in experiment [3] (Cavia porcellus, read-out: change of PAF Acether (3 ng)-induced contraction) stood at 78.8%. The “Contraction induced by PAF Acether (3 ng) (Arbitrary Units)” value in experiment [3] (preventive superfusion 30 μg/ml, average of 10 determinations) was 8.05 ± 2.16 Arbitrary Units. Also, the “inhibition of PAF Acether-induced decline in contractile strength and decrease of coronary flow” value in experiment [4] (2.10^-4 M) is given as “totally inhibited”. Besides, in experiment [4], the “dose at which protective activity disappears” value is ≤ 10^-7 M. Besides, the “Extravasation (O.D.)” value with New-Zealand rabbits (PAF Acether 2 nmol/kg) amounted to 0.827 O.D; in the experiment with New-Zealand rabbits (PAF Acether 4 nmol/kg) it was 0.880 O.D. For the same compound, in the experiment with New-Zealand rabbits (setting [5]), the “Behaviour: behavioural modifications” value was “No behavioural”. Further, in the experiment with New-Zealand rabbits (setting [5]), the “Behaviour: deaths” value is listed as “No death”.
